Measured values reported in PMC8151276, “An Integrated Approach toward NanoBRET Tracers for Analysis of GPCR Ligand Engagement” (Molecules, 2021).

Target: T1, ADRA1D (Homo sapiens, UniProt P25100)
T1 construct: purchased Promega (in-house HiBiT-GPCR construct library, NanoBRET)
T1 sequence (P25100 1-572): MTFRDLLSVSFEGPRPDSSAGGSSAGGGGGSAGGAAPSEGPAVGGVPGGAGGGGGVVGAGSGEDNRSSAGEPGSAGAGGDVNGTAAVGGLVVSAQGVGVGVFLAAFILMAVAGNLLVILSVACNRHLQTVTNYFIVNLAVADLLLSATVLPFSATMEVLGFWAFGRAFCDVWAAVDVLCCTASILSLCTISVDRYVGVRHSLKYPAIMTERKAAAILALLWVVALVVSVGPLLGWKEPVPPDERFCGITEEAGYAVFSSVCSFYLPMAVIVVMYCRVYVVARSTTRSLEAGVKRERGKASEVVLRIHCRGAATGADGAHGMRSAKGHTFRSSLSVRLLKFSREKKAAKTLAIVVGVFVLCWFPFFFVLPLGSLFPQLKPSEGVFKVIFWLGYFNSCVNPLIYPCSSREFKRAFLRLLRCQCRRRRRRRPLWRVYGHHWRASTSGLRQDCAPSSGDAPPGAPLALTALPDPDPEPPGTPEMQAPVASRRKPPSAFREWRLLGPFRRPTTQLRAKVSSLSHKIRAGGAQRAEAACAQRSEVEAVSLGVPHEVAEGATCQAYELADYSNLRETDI
Test: NanoBRET screen HiBiT-ADRA1D in HEK293
Assay type: binding
Experimental: Each tracer candidate was screened across the entire library of HiBiT-GPCR constructs using NanoBRET as the detection modality. As depicted in Figure 4A, the specificity of interactions was evaluated through decrease in BRET due to competitive displacement of a bound tracer by excess parental compound. Each tracer was analyzed for binding to each HiBiT-GPCR fusion in the absence and in the presence of competing parental compound. Briefly, HEK293 cells were transfected with HiBiT-GPCR constructs diluted into promoterless DNA to reduce expression and maximize translocation to the cell surface. Each tracer candidate was then screened at concentrations of 1 μM and 0.1 μM across cells expressing these fusions. Cells were treated for 1.5 h with tracer either alone or in the presence of 20 μM competing parental compound (i.e., control). BRET was measured upon addition of purified LgBiT and subsequent complementation with HiBiT genetically fused to a GPCR. The specificity of interactions was assessed through a decrease in BRET signal due to competitive displacement of the bound tracer. To further gauge the robustness of these interactions, the fold response over the control (i.e., BRETtracer/BRETcontrol) was calculated. We chose a 1.5-fold response, which translates to ≥7-fold signal over noise as the minimal threshold required to score an interaction as positive.
HiBiT-GPCR DNA constructs were diluted in 10 mM Tris pH 8 to a final concentration of 0.01 μg/μL, arrayed in 96-well plates and stored at −20 °C. For transfection, HEK293 cells were suspended in Opti-MEM (without phenol red) supplemented with 2% fetal bovine serum (Seradigm) and 100 units/mL penicillin–streptomycin (Gibco) at a final concentration of 220,000 cells/mL and dispensed into white 96-well plates at 90 μL/well. Subsequent transfections and screens were carried using an Agilent Bravo Automated Liquid Handling Platform. First, the 96-well HiBiT DNA arrays were diluted 25-fold in Opti-MEM (without serum or phenol red) to a final concentration of 0.0004 μg/μL and 20 μL of the diluted DNAs were transferred into new 96-well plates. Next, promoterless carrier DNA (1 μg/μL) was diluted 25-fold (0.04 μg/μL) and then dispensed into the diluted arrays at 20 μL/well. Following brief mixing, Viafect transfection reagent (Promega) diluted 16-fold into Opti-MEM was dispensed into the plates at 40 μL/well. After mixing by pipetting, plates were incubated for 10 min on the pipetting station deck. The DNA-transfection reagent complexes were then added to plates containing cells. To facilitate the screen, 10 μL of DNA-transfection reagent complexes were added in duplicates to the top 4 and bottom 4 rows, resulting in two identical 48-well arrays per plate. Plates with transfected cells were incubated for 18–20 h at 37 °C/5% CO2. A screen of each tracer across the entire library using two different concentrations requires duplicate plates of transfected cells. Depending on the number of tracers being screened, transfections can be scaled up using the same ratios. The next day, for each tracer, four 20× screening solutions in tracer dilution buffer (Promega) were prepared: two duplicates at final concentration of 20 μM and two duplicates at a final concentration of 2 μM. […] The four resulting solutions were diluted 4-fold in Opti-MEM without serum or phenol red to generate 5× solutions (5 µM and 0.5 µM tracer +/− 100 μM competing compound). To screen the library, a BioTek MultiFlo FX liquid dispenser was used to dispense 22.5 µL of tracer solution to the top 4 rows and 22.5 µL tracer + competing compound solution to the 4 bottom rows. Plates were briefly mixed on an orbital shaker and incubated for 1.5 h at room temperature. […] Plates were briefly mixed on an orbital shaker and incubated for 15 min to allow complementation.

Row | Compound | NanoBRET Fold Response (ADRA1D, tracer 0.1μM) | NanoBRET Fold Response (ADRA1D, tracer 1μM) | further results
1 | CCOC(=O)c1cc(C#N)c(N2CCC(C(=O)NS(=O)(=O)Cc3ccccc3/C=C/C(=O)NCCNC(=O)CCc3ccc4n3[B-](F)(F)[N+]3=C(c5ccc[nH]5)C=CC3=C4)CC2)nc1C [AZD1283-1-NB590] | – | – | NanoBRET Fold Response (ADRA1D, 0.1μM): 1.02; NanoBRET Fold Response (ADRA1D, 1μM): 1.06
2 | N#CN=C(NCCCOc1cccc(CN2CCCCC2)c1)NCCNC(=O)CCOCCOCCOCCOCCNC(=O)CCc1ccc2n1[B-](F)(F)[N+]1=C(c3ccc[nH]3)C=CC1=C2 [Aminopotentidine-2-NB590] | 0.97 | – | –
3 | CN(C)CCC=C1c2ccccc2CCc2ccc(C(=O)NCCNC(=O)CCOCCOCCOCCOCCNC(=O)CCc3ccc4n3[B-](F)(F)[N+]3=C(c5ccc[nH]5)C=CC3=C4)cc21 [Amitriptyline-a-2-NB590] | – | – | NanoBRET Fold Response (tracer at 0.1μM): 1.08; NanoBRET Fold Response (tracer at 1μM): 1.11
4 | CN(C)CCC=C1c2ccccc2CCc2ccc(C(=O)NCCNC(=O)CCOCCOCCOCCOCCNC(=O)CCc3ccc4n3[B-](F)(F)[N+]3=C(c5ccc[nH]5)C=CC3=C4)cc21 [Amitriptyline-b-2-NB590] | – | – | NanoBRET Fold Response (tracer at 0.1μM, listed as amitriptyline-b-2-NB590): 1.05; NanoBRET Fold Response (tracer at 1μM, listed as amitriptyline-b-2-NB590): 1.07
5 | CN(CCC=C1c2ccccc2CCc2ccccc21)C(=O)CCOCCOCCOCCOCCNC(=O)CCc1ccc2n1[B-](F)(F)[N+]1=C(c3ccc[nH]3)C=CC1=C2 [Amitriptyline-e-2-NB590] | – | – | NanoBRET Fold Response (tracer at 1μM): 1.07
6 | COc1ccc2c(n1)c(CCNC(C)=O)cn2CCNC(=O)CCc1ccc2n1[B-](F)(F)[N+]1=C(c3ccc[nH]3)C=CC1=C2 [Azamelatonin-1-NB590] | – | – | NanoBRET Fold Response (0.1μM tracer): 1.04; NanoBRET Fold Response (1μM tracer): 0.92
7 | COc1ccc2[nH]c(-c3ccc(CNC(=O)CCOCCOCCOCCOCCNC(=O)CCc4ccc5n4[B-](F)(F)[N+]4=C(c6ccc[nH]6)C=CC4=C5)cc3)c(CCNC(C)=O)c2n1 [AzomelatoninICO9-2-NB590] | – | – | NanoBRET Fold Response (0.1μM tracer): 0.81; NanoBRET Fold Response (1μM tracer): 0.96
8 | O=C(CCOCCOCCOCCOCCNC(=O)CCc1ccc2n1[B-](F)(F)[N+]1=C(c3ccc[nH]3)C=CC1=C2)NCCCN1CCN(C2=Nc3cc(Cl)ccc3Nc3ccccc32)CC1 [Clozapine-a-2-NB590] | – | – | NanoBRET Fold Response (ADRA1D, 0.1μM tracer): 1.21; NanoBRET Fold Response (ADRA1D, 1μM tracer): 1.08
9 | O=C(CCOCCOCCOCCOCCNC(=O)CCc1ccc2n1[B-](F)(F)[N+]1=C(c3ccc[nH]3)C=CC1=C2)NCCCN1CCN(C2=Nc3ccccc3Oc3ccc(Cl)cc32)CC1 [Loxapine-a-2-NB590] | 1.07 | 1.24 | –
10 | COc1ccccc1N1CCN(CCCCN2C(=O)c3ccc(CNC(=O)CCOCCOCCOCCOCCNC(=O)CCc4ccc5n4[B-](F)(F)[N+]4=C(c6ccc[nH]6)C=CC4=C5)cc3C2=O)CC1 [NAN-190-2-NB590] | 1.10 | 1.13 | –
11 | COc1ccccc1N1CCN(CCCCN2C(=O)c3ccc(CNC(=O)CCOCCNC(=O)c4ccc(CNC(=O)CCc5ccc6n5[B-](F)(F)[N+]5=C(c7ccc[nH]7)C=CC5=C6)cc4)cc3C2=O)CC1 [NAN-190-3-NB590] | – | 1.16 | –
12 | O=C(CCc1ccc2n1[B-](F)(F)[N+]1=C(c3ccc[nH]3)C=CC1=C2)NCc1ccc(C(=O)NCCOCCC(=O)N[C@@H]2CC[C@@]3(O)[C@H]4Cc5ccc(O)c6c5[C@@]3(CCN4CC3CC3)[C@H]2O6)cc1 [Naltrexone-3-NB590] | 1.36 | 1.31 | –
13 | Cc1cc2c(s1)Nc1ccccc1N=C2N1CCN(CCCNC(=O)CCOCCOCCOCCOCCNC(=O)CCc2ccc3n2[B-](F)(F)[N+]2=C(c4ccc[nH]4)C=CC2=C3)CC1 [Olanzapine-a-2-NB590] | – | 1.06 | –
14 | O=C(CCc1ccc2n1[B-](F)(F)[N+]1=C(c3ccc[nH]3)C=CC1=C2)NCc1ccc(C(=O)NCCOCCOCCNCC(O)COc2cccc3ccccc23)cc1 (stereo not shown) [Propranolol-3-NB590] | – | – | NanoBRET Fold Response (ADRA1D, 0.1μM): 1.11; NanoBRET Fold Response (ADRA1D, 1μM): 1.09
15 | O=C(CCc1ccc2n1[B-](F)(F)[N+]1=C(c3ccc[nH]3)C=CC1=C2)NCCOCCOCCNC(=O)OCCOCCN1CCN(C2=Nc3ccccc3Sc3ccccc32)CC1 [Quetiapine-a-2-NB590] | 1.13 | 1.06 | –
16 | Cc1nc2n(c(=O)c1CCN1CCC(c3noc4cc(F)ccc34)CC1)CCCC2OC(=O)NCCOCCOCCOCCOCCNC(=O)CCc1ccc2n1[B-](F)(F)[N+]1=C(c3ccc[nH]3)C=CC1=C2 (stereo not shown) [Risperidone-2-NB590] | 1.27 | 1.16 | –
17 | CC(C)N(CC[C@H](c1ccccc1)c1cc(CCNC(=O)CCOCCOCCOCCOCCNC(=O)CCc2ccc3n2[B-](F)(F)[N+]2=C(c4ccc[nH]4)C=CC2=C3)ccc1O)C(C)C [Tolterodine-2-NB590] | 0.95 | 1.00 | –
18 | CC(C)N(CC[C@H](c1ccccc1)c1cc(CCNC(=O)c2ccc(CNC(=O)CCc3ccc4n3[B-](F)(F)[N+]3=C(c5ccc[nH]5)C=CC3=C4)cc2)ccc1O)C(C)C [Tolterodine-BZ-NB590] | 1.15 | 1.05 | –
19 | CCCn1c(=O)c2[nH]c(-c3ccc(OCC(=O)NCCNC(=O)CCOCCNC(=O)c4ccc(CNC(=O)CCc5ccc6n5[B-](F)(F)[N+]5=C(c7ccc[nH]7)C=CC5=C6)cc4)cc3)nc2n(CCC)c1=O [XAC-3-NB590] | 1.02 | 1.10 | –
